Laboratory results: patent publication US20080014133A1, “Extraction Of Radionuclides By Crown Ether-Containing Extractants” (priority 2004, published 2008)

Assays:
Assay type in all cases: physicochemical
[1] = Extraction of strontium in a dynamic countercurrent mode (7.1)
From the text: A starting aqueous solution whose composition and concentration of the components are given in Table 3 for a solution No.1 was contacted with the extractant according to the invention containing 0.05 mole/l of DCH18C6 in a solvent containing 20% by volume of synthanol and 80% by volume of Fluoroheptanol n3 in a continuous countercurrent process on a facility with extractors such as “mixer-settler” devices with impulse agitation and phase transportation. The extraction included eight steps of extraction, two washing steps, eight re-extraction steps and two steps of regeneration of the reused extractant.
When running the facility, radiometric monitoring devices were used to control the concentration of strontium in the refined products, re-extracts and reclaims, as well as the concentration of the crown ethers in the extracted products.

[2] = Distribution ratio of strontium extracted in organic solutions of crown ethers (Table 1); details: crown ether 0.1 mole/l in Fluoroheptanol n3; Sr and Cs 1 g/l, nitric acid about 3.0 mol/l
Procedure: (§1) Study was carried out for determining the distribution ratios of radionuclides, for example, strontium or cesium to be extracted by the extractants according to the invention containing various crown ethers as a complexing agent: bis(tert-butylbenzo)-18-crown-6 (subsequently referred to as DTBDB18C6), di-isooctylbenzo-18-crown-6 (subsequently referred to as DIODB18C6), bis(tert-butylcyclohexane-18-crown-6 (subsequently referred to as DTBDCH18C6), di-isooxyldicyclohexane-18-crown-6 (subsequently referred to as DIODCH18C6), bicyclohexane-18-crown-6 (subsequently referred to as DCH18C6) or dibenzo-21-crown-7 (subsequently referred to as DB21C7), in an organic solvent according to the invention: polyfluorinated telomeric alcohol 1,1,7-trihydrododecafluoroheptanol-1 (subsequently referred to as fluoroheptanol n3).
(§2) For comparison, the distribution ratios of strontium and cesium were determined using extractants containing similar crown ethers in another organic solvent (decane).
(§3) Taken for the tests were experimental aqueous nitrate solutions containing strontium and cesium in a concentration of 1 g/l with a content of nitric acid of about 3.0 mol/l.

[3] = Influence of nitric acid concentration on cesium extraction from solution No.1; details: for Distribution ratios of cesium: solution No.1
From the text: The dependence of extraction of cesium by organic solutions DTBDB18C6 in fluoropentanol n3 and DB21C7 in Fluoroheptanol n3 at a concentration of nitric acid in a starting solution was studied. Solution No.1 whose composition is listed in Table 2 was used as a starting solution.

[4] = Behaviour of crown ether in decane extraction system (Table 1 remarks); details: crown ether 0.1 mole/l in Decane
Procedure: as §1, §2, §3

[5] = Concentration of crown ether in extracted products, dynamic cesium extraction (7.2)
From the text: (§4) The scheme of the process and the conditions of extraction of cesium by the method according to the invention are similar to those described above in 7.1, but the organic phase for extraction of cesium includes solutions DB21C7 in a concentration of about 0.05 mol/l in an organic solvent containing synthanol in an amount of 5% by volume and Fluoroheptanol n3 in an amount of about 95% by volume.
(§5) During the operation of the experimental facility radiometric monitoring devices were used to control the concentration of strontium in the refined products, re-extracts and reclaims, as well as the concentration of the crown ethers in the extracted products. The technological characteristics of the process and solubility of the crown ether (averaged values of several experiments) are given in Table 16.

[6] = Extraction of cesium under dynamic conditions (7.2)
From the text: as §4, §5

With `C1CCC2OCCOCCOC3CCCCC3OCCOCCOC2C1` (stereo not drawn) [DCH18C6, bicyclohexane-18-crown-6] the “Contents of strontium in the extracted products, in percent of the feedstock” value (from here on “Contents … in percent of the feedstock”) ([1]; Re-extract) was 99.55% of the feedstock, the “Contents … in percent of the feedstock” value ([1]; Reclaim) was <0.1% of the feedstock and the “Contents … in percent of the feedstock” value ([1]; Refined product, 0.05 mol/l DCH18C6, Synthanol 20% / Fluoroheptanol n3 80%, solution No.1) was 0.35% of the feedstock. The Average concentrating factor ([1]; dynamic mode 7.1) was “about 1.7 times”, the “Efficiency of the extraction of strontium” value ([1]; dynamic mode 7.1) was “exceeds 99%” and the “Distribution ratio Strontium” value [2] was 1.6.

In the case of `c1ccc2c(c1)OCCOCCOCCOc1ccccc1OCCOCCO2` [DB21C7, dibenzo-21-crown-7], the “Concentration of nitric acid at the maximum of cesium extraction” value [3] is reported as about 3.0 mol/l, the “Distribution ratios of cesium” value ([3]; nitric acid 0 mol/l, Fluoroheptanol n3) is reported as 0.25 and the “Distribution ratios of cesium” value ([3]; nitric acid 0.1 mol/l) is reported as 1.0. For the same compound, the “Distribution ratios of cesium” value ([3]; nitric acid 0.5 mol/l) was 3.2, the “Distribution ratios of cesium” value ([3]; nitric acid 1.0 mol/l) was 7.8 and the “Distribution ratios of cesium” value ([3]; nitric acid 2.0 mol/l) was 10.2. The “Distribution ratios of cesium” value ([3]; nitric acid 3.0 mol/l) was 12.2, the “Distribution ratios of cesium” value ([3]; nitric acid 4.0 mol/l) was 11.4 and the “Distribution ratios of cesium” value ([3]; nitric acid 5.0 mol/l) was 10.0. The “Distribution ratios of cesium” value ([3]; nitric acid 6.0 mol/l) was 8.0, the “Distribution ratios of cesium” value ([3]; nitric acid 7.0 mol/l) was 6.2 and the “Distribution ratios of cesium” value ([3]; nitric acid 8.0 mol/l) was 5.0. For the same compound, the Remarks [4] was “Is insoluble”, the “Concentration of the crown ether in the extracted products” value (shortened to “Concentration of the crown ether”) ([5]; Re-extract) was 53 Mg/l and the “Concentration of the crown ether” value ([5]; Reclaim) was 18 Mg/l. For the same compound, the “Concentration of the crown ether” value ([5]; Refined product) was 27 Mg/l, the “Content of cesium in the extracted products in percent of the feedstock” value (from here on “Content of cesium … in percent of the feedstock”) ([6]; Re-extract) was 94.5% of the feedstock and the “Content of cesium … in percent of the feedstock” value ([6]; Reclaim) was 4.15% of the feedstock. For the same compound, the “Content of cesium … in percent of the feedstock” value ([6]; Refined product, 0.05 mol/l DB21C7, Synthanol 5% / Fluoroheptanol n3 95%, solution No.1) was 1.35% of the feedstock, the “Cesium yield in a saltless product” value ([6]; dynamic conditions 7.2) was “about 95%” and the Extraction of cesium ([6]; dynamic conditions 7.2) was over 98%.
